In article PMC11995724, “Antibiotic target discovery by integrated phenotypic and activity-based profiling of electrophilic fragments” (Cell chemical biology, 2025):
Counter-ions that a name gives are not always drawn.

assay: in vitro; conditions: human, hek293t cells
Experimental: Mammalian cytotoxicity measurement was performed using Cell Titer-Glo 2.0 Cell Viability Assay (Promega, G9243) according to the manufacturer protocol. In brief, mammalian cells were seeded into 384-well white plates (Greiner, 781080) and incubated at 37°C for one day. Compounds from the Cys-Library were dispensed into the assay plate using epMotion 96. The plates were then incubated at 37°C for two days. An equal volume of Cell Titer-Glo 2.0 reagent was added into each well of the assay plate using epMotion 96 and incubated at 22°C for 10 min, followed by luminescence measurement using a Cytation 5 plate reader (BioTek).

For `CC(Cl)C(=O)N1CCN(CCOc2ccc3c(c2)CCC3)CC1` (centres unmarked) [6-H17, 2-chloro-1-{4-[2-(2,3-dihydro-1H-inden-5-yloxy)ethyl]piperazin-1-yl}propan-1-one], which viability at 48 h, 25 µM is on record?
The viability at 48 h, 25 µM was 3.42%.

Which viability at 48 h, 25 µM does the source give for `C=CC(=O)N(Cc1c(C)cc(Cl)cc1C)CC1COCCO1` (centres unmarked) [1-J09, N-[(4-chloro-2,6-dimethylphenyl)methyl]-N-[(1,4-dioxan-2-yl)methyl]prop-2-enamide] here?
Its viability at 48 h, 25 µM is 81.4%.

Which viability at 48 h, 25 µM does the source give for `C=CC(=O)NCC1CCS(=O)(=O)C1(C)C` (centres unmarked) [1-O16, N-[(2,2-dimethyl-1,1-dioxo-1lambda6-thiolan-3-yl)methyl]prop-2-enamide] here?
Its viability at 48 h, 25 µM is 103%.

For `Cc1cc(Cl)ccc1OC(C)C(=O)N1CCSSCC1` (centres unmarked) [10-J21, 2-(4-chloro-2-methylphenoxy)-1-(1,2,5-dithiazepan-5-yl)propan-1-one], which viability at 48 h, 25 µM is on record?
The viability at 48 h, 25 µM was 110%.

For `O=C1CCc2cc(C(=O)CCl)ccc2N1` [10-M03, 6-(2-chloroacetyl)-1,2,3,4-tetrahydroquinolin-2-one], which viability at 48 h, 25 µM is on record?
The viability at 48 h, 25 µM was 1.31%.

For `COc1cc(NC(=O)CCl)c(OC)cc1Cl` [5-C05, 2-chloro-N-(4-chloro-2,5-dimethoxyphenyl)acetamide], which viability at 48 h, 25 µM is on record?
The viability at 48 h, 25 µM was 0.731%.

With `C=CC(=O)N1CCC(C(=O)N(C)C(C)Cc2ccc(C)cc2)CC1` (centres unmarked) [2-F14, N-methyl-N-[1-(4-methylphenyl)propan-2-yl]-1-(prop-2-enoyl)piperidine-4-carboxamide] as the compound, how does the viability at 48 h, 25 µM read?
The viability at 48 h, 25 µM was 79.5%.

Which viability at 48 h, 25 µM does the source give for `N#CC(=Cc1cccc(F)c1)C(=O)NCCc1ccccc1` [8-J22, 2-cyano-3-(3-fluorophenyl)-N-(2-phenylethyl)prop-2-enamide] here?
Its viability at 48 h, 25 µM is 103%.

With `COC1(OC)CCOCC1NC(=O)CCl` (centres unmarked) [7-D10, 2-chloro-N-(4,4-dimethoxyoxan-3-yl)acetamide] as the compound, how does the viability at 48 h, 25 µM read?
Its viability at 48 h, 25 µM is 19.1%.

For `CC(Cl)C(=O)NC(C)C(=O)N1CCc2ccccc21` (centres unmarked) [7-M21, 2-chloro-N-[1-(2,3-dihydro-1H-indol-1-yl)-1-oxopropan-2-yl]propanamide], which viability at 48 h, 25 µM is on record?
The viability at 48 h, 25 µM was 84.1%.

With `CC(Cl)C(=O)Nc1c(Cl)cc(Cl)cc1Cl` (centres unmarked) [6-K09, 2-chloro-N-(2,4,6-trichlorophenyl)propanamide] as the compound, how does the viability at 48 h, 25 µM read?
Its viability at 48 h, 25 µM is 115%.

For `C=CC(=O)Nc1ccc(C(N)=O)cc1C` [1-P06, 3-methyl-4-(prop-2-enamido)benzamide], which viability at 48 h, 25 µM is on record?
Its viability at 48 h, 25 µM is 84.8%.

For `C=CS(=O)(=O)Nc1ccccc1` [10-C07, N-phenylethene-1-sulfonamide], which viability at 48 h, 25 µM is on record?
The viability at 48 h, 25 µM was 30.8%.

For `O=C(CCl)NCc1ccccc1[N+](=O)[O-]` [6-A22, 2-chloro-N-[(2-nitrophenyl)methyl]acetamide], which viability at 48 h, 25 µM is on record?
The viability at 48 h, 25 µM was 0.388%.

Which viability at 48 h, 25 µM does the source give for `C=CC(=O)NCCc1cnc2c(Cl)cnn2c1` [1-L06, N-(2-{3-chloropyrazolo[1,5-a]pyrimidin-6-yl}ethyl)prop-2-enamide] here?
Its viability at 48 h, 25 µM is 74.5%.

Which viability at 48 h, 25 µM does the source give for `Cc1csc(CN2CCN(C(=O)C(C)Cl)CC2)n1` (centres unmarked) [5-H17, 2-chloro-1-{4-[(4-methyl-1,3-thiazol-2-yl)methyl]piperazin-1-yl}propan-1-one] here?
The viability at 48 h, 25 µM was 87.4%.

Which viability at 48 h, 25 µM does the source give for `Cc1ccc(C=C(C#N)C(=O)Nc2cccc3ncccc23)cc1` [9-J05, 2-cyano-3-(4-methylphenyl)-N-(quinolin-5-yl)prop-2-enamide] here?
Its viability at 48 h, 25 µM is 123%.

Which viability at 48 h, 25 µM does the source give for `Cc1c(C#N)c(NC(=O)CCl)n(Cc2ccco2)c1C` [4-D09, 2-chloro-N-{3-cyano-1-[(furan-2-yl)methyl]-4,5-dimethyl-1H-pyrrol-2-yl}acetamide] here?
The viability at 48 h, 25 µM was -0.0889%.

For `C=CC(=O)Nc1ccc(-c2noc(C)n2)cc1` [1-K16, N-[4-(5-methyl-1,2,4-oxadiazol-3-yl)phenyl]prop-2-enamide], which viability at 48 h, 25 µM is on record?
The viability at 48 h, 25 µM was 60.2%.

With `COc1ccc(CN(C)C(=O)CCl)cc1F` [4-F03, 2-chloro-N-[(3-fluoro-4-methoxyphenyl)methyl]-N-methylacetamide] as the compound, how does the viability at 48 h, 25 µM read?
The viability at 48 h, 25 µM was 0.725%.

Which viability at 48 h, 25 µM does the source give for `C[C@H]1CN(C(=O)CCl)Cc2cccn21` [5-B03, 2-chloro-1-[(4S)-4-methyl-1H,2H,3H,4H-pyrrolo[1,2-a]pyrazin-2-yl]ethan-1-one] here?
Its viability at 48 h, 25 µM is 0.688%.

Which viability at 48 h, 25 µM does the source give for `C=CC(=O)N1CCn2c(nnc2C(F)(F)F)C1` [1-D18, 1-[3-(trifluoromethyl)-5H,6H,7H,8H-[1,2,4]triazolo[4,3-a]pyrazin-7-yl]prop-2-en-1-one] here?
The viability at 48 h, 25 µM was 66.6%.

With `CC(C)NC(=O)C(C#N)=Cc1ccc(Cl)cc1` [9-C09, 3-(4-chlorophenyl)-2-cyano-N-(propan-2-yl)prop-2-enamide] as the compound, how does the viability at 48 h, 25 µM read?
Its viability at 48 h, 25 µM is 86.7%.

With `O=C(CCl)NCc1cccc(NC(=O)C2CC2)c1` [4-D22, N-{3-[(2-chloroacetamido)methyl]phenyl}cyclopropanecarboxamide] as the compound, how does the viability at 48 h, 25 µM read?
The viability at 48 h, 25 µM was 1.24%.

With `N#Cc1ccc(C(=O)CCl)cc1` [10-F10, 4-(2-chloroacetyl)benzonitrile] as the compound, how does the viability at 48 h, 25 µM read?
The viability at 48 h, 25 µM was 49%.

With `O=C(CCl)N(Cc1ccc(F)cc1)C12CC3CC(CC(C3)C1)C2` [4-B11, N-(adamantan-1-yl)-2-chloro-N-[(4-fluorophenyl)methyl]acetamide] as the compound, how does the viability at 48 h, 25 µM read?
Its viability at 48 h, 25 µM is -0.169%.

With `CC(Cl)C(=O)Nc1sc2c(c1C(N)=O)CCC2` (centres unmarked) [6-A21, 2-(2-chloropropanamido)-4H,5H,6H-cyclopenta[b]thiophene-3-carboxamide] as the compound, how does the viability at 48 h, 25 µM read?
The viability at 48 h, 25 µM was 119%.

With `CC(Cl)C(=O)N1CCN(S(=O)(=O)c2ccccc2)CC1` (centres unmarked) [6-B12, 1-[4-(benzenesulfonyl)piperazin-1-yl]-2-chloropropan-1-one] as the compound, how does the viability at 48 h, 25 µM read?
The viability at 48 h, 25 µM was 100%.

Which viability at 48 h, 25 µM does the source give for `N#CC(=Cc1cn(-c2ccccc2)nc1-c1ccc(Cl)cc1)C(N)=O` [8-H16, 3-[3-(4-chlorophenyl)-1-phenyl-1H-pyrazol-4-yl]-2-cyanoprop-2-enamide] here?
Its viability at 48 h, 25 µM is 125%.

With `O=CN1CCN(C(=O)CCl)CC1` [6-M17, 4-(2-chloroacetyl)piperazine-1-carbaldehyde] as the compound, how does the viability at 48 h, 25 µM read?
The viability at 48 h, 25 µM was 2.22%.

Which viability at 48 h, 25 µM does the source give for `CC1CCCN(Cc2ccc(CNC(=O)CCl)cc2)C1` (centres unmarked) [6-K04, 2-chloro-N-({4-[(3-methylpiperidin-1-yl)methyl]phenyl}methyl)acetamide hydrochloride] here?
Its viability at 48 h, 25 µM is 56.4%.

Which viability at 48 h, 25 µM does the source give for `COc1ccc2c(c1)OCCN(C(=O)C(C)Cl)C2` (centres unmarked) [7-E04, 2-chloro-1-(8-methoxy-2,3,4,5-tetrahydro-1,4-benzoxazepin-4-yl)propan-1-one] here?
The viability at 48 h, 25 µM was 122%.

Which viability at 48 h, 25 µM does the source give for `N#CC(=Cc1ccc(F)c([N+](=O)[O-])c1)C(=O)Nc1ccc(F)cc1` [8-D04, 2-cyano-3-(4-fluoro-3-nitrophenyl)-N-(4-fluorophenyl)prop-2-enamide] here?
Its viability at 48 h, 25 µM is 1.12%.

Which viability at 48 h, 25 µM does the source give for `N#CC(=Cc1ccc(N2CCOCC2)cc1)C(=O)Nc1ccccc1F` [9-B03, 2-cyano-N-(2-fluorophenyl)-3-[4-(morpholin-4-yl)phenyl]prop-2-enamide] here?
Its viability at 48 h, 25 µM is 89.3%.

For `C=CC(=O)NCc1cccc(CNS(C)(=O)=O)c1` [3-F11, N-{[3-(methanesulfonamidomethyl)phenyl]methyl}prop-2-enamide], which viability at 48 h, 25 µM is on record?
The viability at 48 h, 25 µM was 95.9%.

With `CC(Cl)C(=O)N1CCCN(C)c2cc(F)ccc21` (centres unmarked) [6-N16, 2-chloro-1-(7-fluoro-5-methyl-2,3,4,5-tetrahydro-1H-1,5-benzodiazepin-1-yl)propan-1-one] as the compound, how does the viability at 48 h, 25 µM read?
The viability at 48 h, 25 µM was 101%.

Which viability at 48 h, 25 µM does the source give for `CC1CCN(C(=O)CCl)c2cc(C(F)(F)F)ccc2S1` (centres unmarked) [5-J07, 2-chloro-1-[2-methyl-7-(trifluoromethyl)-2,3,4,5-tetrahydro-1,5-benzothiazepin-5-yl]ethan-1-one] here?
The viability at 48 h, 25 µM was 0.306%.

With `CC1=C(C#N)C(=O)N(C)C(=O)C1=Cc1ccc(-c2ccccc2Cl)o1` [9-K18, 5-{[5-(2-chlorophenyl)furan-2-yl]methylidene}-1,4-dimethyl-2,6-dioxo-1,2,5,6-tetrahydropyridine-3-carbonitrile] as the compound, how does the viability at 48 h, 25 µM read?
Its viability at 48 h, 25 µM is 126%.

With `CCN(Cc1ccc(C#N)cc1F)C(=O)CCl` [5-H08, 2-chloro-N-[(4-cyano-2-fluorophenyl)methyl]-N-ethylacetamide] as the compound, how does the viability at 48 h, 25 µM read?
The viability at 48 h, 25 µM was 0.591%.

Which viability at 48 h, 25 µM does the source give for `C=CC(=O)N1CCN(Cc2cc(C)no2)CC1` [1-B18, 1-{4-[(3-methyl-1,2-oxazol-5-yl)methyl]piperazin-1-yl}prop-2-en-1-one] here?
The viability at 48 h, 25 µM was 70.8%.

With `C=CC(=O)Nc1cn(C)nc1OC(C)C` [1-F14, N-[1-methyl-3-(propan-2-yloxy)-1H-pyrazol-4-yl]prop-2-enamide] as the compound, how does the viability at 48 h, 25 µM read?
Its viability at 48 h, 25 µM is 71.2%.

With `CN(C(=O)CCl)C1CCN(c2ccccc2F)C1=O` (centres unmarked) [5-A18, 2-chloro-N-[1-(2-fluorophenyl)-2-oxopyrrolidin-3-yl]-N-methylacetamide] as the compound, how does the viability at 48 h, 25 µM read?
Its viability at 48 h, 25 µM is 0.916%.

With `O=C(CCl)NCC1CCN(C(=O)c2ccccc2)CC1` [7-L06, N-[(1-benzoylpiperidin-4-yl)methyl]-2-chloroacetamide] as the compound, how does the viability at 48 h, 25 µM read?
Its viability at 48 h, 25 µM is 0.868%.

Which viability at 48 h, 25 µM does the source give for `CSc1ccc(C=C(C#N)C(=O)Nc2cccc(Cl)c2C)cc1` [8-N11, N-(3-chloro-2-methylphenyl)-2-cyano-3-[4-(methylsulfanyl)phenyl]prop-2-enamide] here?
Its viability at 48 h, 25 µM is 103%.

For `CN(CC(=O)Nc1ccc(Cl)cc1)C(=O)CCl` [4-D03, 2-chloro-N-{[(4-chlorophenyl)carbamoyl]methyl}-N-methylacetamide], which viability at 48 h, 25 µM is on record?
The viability at 48 h, 25 µM was 0.468%.

Which viability at 48 h, 25 µM does the source give for `N#CC(=Cc1ccsc1)C(=O)Nc1ccc(Cl)cc1` [9-I06, N-(4-chlorophenyl)-2-cyano-3-(thiophen-3-yl)prop-2-enamide] here?
Its viability at 48 h, 25 µM is 112%.

With `COc1cc(C=C(C#N)C(=O)Nc2cccc(C)c2)c2c(c1)CC(C)O2` (centres unmarked) [8-N22, 2-cyano-3-(5-methoxy-2-methyl-2,3-dihydro-1-benzofuran-7-yl)-N-(3-methylphenyl)prop-2-enamide] as the compound, how does the viability at 48 h, 25 µM read?
The viability at 48 h, 25 µM was 83.2%.

With `C=CC(=O)N1CCCC(c2nn(C)cc2C(N)=O)C1` (centres unmarked) [1-D07, 1-methyl-3-[1-(prop-2-enoyl)piperidin-3-yl]-1H-pyrazole-4-carboxamide] as the compound, how does the viability at 48 h, 25 µM read?
The viability at 48 h, 25 µM was 107%.

Which viability at 48 h, 25 µM does the source give for `COc1ccc(Cl)cc1CNC(=O)CCl` [6-A16, 2-chloro-N-[(5-chloro-2-methoxyphenyl)methyl]acetamide] here?
The viability at 48 h, 25 µM was 0.564%.

Which viability at 48 h, 25 µM does the source give for `CC(Cl)C(=O)N1CCCCCC1` (centres unmarked) [5-F11, 1-(azepan-1-yl)-2-chloropropan-1-one] here?
Its viability at 48 h, 25 µM is 105%.

With `C=CC(=O)N(C)CC(=O)N1CCN(C(=O)C2CCCCC2)CC1` [3-O10, N-[2-(4-cyclohexanecarbonylpiperazin-1-yl)-2-oxoethyl]-N-methylprop-2-enamide] as the compound, how does the viability at 48 h, 25 µM read?
Its viability at 48 h, 25 µM is 93.8%.

With `N#CCSc1ccccc1NC(=O)CCl` [6-C11, 2-chloro-N-{2-[(cyanomethyl)sulfanyl]phenyl}acetamide] as the compound, how does the viability at 48 h, 25 µM read?
Its viability at 48 h, 25 µM is 2.08%.

For `O=C(CCl)Nc1nc(-c2cc(F)ccc2F)cs1` [4-L22, 2-chloro-N-[4-(2,5-difluorophenyl)-1,3-thiazol-2-yl]acetamide], which viability at 48 h, 25 µM is on record?
Its viability at 48 h, 25 µM is 0.065%.
